Results reported in patent US7632839B2, “Mitotic kinesin inhibitors” (Merck & Co. Inc., priority 2005, dated 2009).

Molecular target: T1, human KSP motor domain (KSP(367H)) (Homo sapiens, UniProt P52732)
T1 construct: were used to amplify the motor domain and the neck linker region; made in house; host or cells: E. coli BL21 (DE3), pRSETa
T1 sequence (P52732 18-359 limits assumed): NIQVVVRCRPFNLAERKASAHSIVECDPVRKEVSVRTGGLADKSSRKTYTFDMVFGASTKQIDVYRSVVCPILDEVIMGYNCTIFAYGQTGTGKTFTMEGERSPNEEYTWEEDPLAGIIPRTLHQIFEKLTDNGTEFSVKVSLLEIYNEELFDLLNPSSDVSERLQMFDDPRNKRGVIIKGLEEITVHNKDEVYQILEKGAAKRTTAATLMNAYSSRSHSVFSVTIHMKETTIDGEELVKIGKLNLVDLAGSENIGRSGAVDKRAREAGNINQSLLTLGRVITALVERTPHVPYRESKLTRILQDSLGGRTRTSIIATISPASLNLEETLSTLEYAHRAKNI
Assay: Kinesin ATPase In Vitro Assay
Assay type: biochemical
Conditions: KSP motor domain with microtubules, 1 mM ATP, 23° C.
Excerpt: I. Kinesin ATPase In Vitro Assay
Cloning and Expression of Human Poly-Histidine Tagged KSP Motor Domain (KSP(367H))
Plasmids for the expression of the human KSP motor domain construct were cloned by PCR using a pBluescript full length human KSP construct (Blangy et al., Cell, vol. 83, pp 1159-1169, 1995) as a template. The N-terminal primer 5′-[…] (SEQ.ID.NO.: 1) and the C-terminal primer 5′-[…] […] (SEQ.ID.NO.: 2) were used to amplify the motor domain and the neck linker region. The PCR products were digested with AseI and XhoI, ligated into the NdeI/XhoI digestion product of pRSETa (Invitrogen) and transformed into E. coli BL21 (DE3).
Cells were grown at 37° C. to an OD600 of 0.5. […]
The kinesin motor domain is incubated with microtubules, 1 mM ATP (1:1 MgCl2: Na-ATP), and compound at 23° C. in buffer containing 80 mM K-HEPES (pH 7.0), 1 mM EGTA, 1 mM DTT, 1 mM MgCl2, and 50 mM KCl. […] Free phosphate from the ATP hydrolysis reaction is measured via a quinaldine red/ammonium molybdate assay by adding 150 μl of quench C buffer containing a 2:1 ratio of quench A:quench B. Quench A contains 0.1 mg/ml quinaldine red and 0.14% polyvinyl alcohol; quench B contains 12.3 mM ammonium molybdate tetrahydrate in 1.15 M sulfuric acid. The reaction is incubated for 10 minutes at 23° C., and the absorbance of the phospho-molybdate complex is measured at 540 nm.

Cc1ccc(C(=O)N(CC(F)CN)C(c2nc3cnccc3c(=O)n2Cc2ccccc2)C(C)C)cc1 [Compound I-13, N-(3-amino-2-(R,S)-fluoropropyl)-N-[1-(3-benzyl-4-oxo-3,4-dihydropyrido[3,4-d]pyrimidin-2-yl)-2-(R,S)-methylpropyl]-4-methylbenzamide]
IC50: ≤ 50 µM
